Measured values from patent publication US20250136581A1, “SUBSTITUTED TRIAZOLE DERIVATIVE, PREPARATION METHOD THEREFOR, PHARMACEUTICAL COMPOSITION THEREOF, AND USE THEREOF” (SHANGHAI SIMR BIOTECHNOLOGY CO., LTD., priority 2021, published 2025).
Like-named read-outs stand apart in the source and are kept apart here.

Columns and labels:
[1] = molecular target: α5-GABAA receptor (α5, β3, γ2 subunits) (Homo sapiens (Human), UniProt P18507+P31644); experiment: Whole cell patch clamp, inverse agonist efficacy in HEK293 cells expressing α5-GABAA receptor; format: cell-based; conditions: HEK293, drug 100 nM, GABA 0.05 μM, −60 mV; read-out: Compound inverse agonist efficacy %
How it was run: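 Compounds screened at 100 nM against current induced by 0.05 μM GABA in monoclonal HEK293 cells stably expressing α5β3γ2 GABAA receptors. Recording by whole-cell voltage clamp (−60 mV, pH 7.4 bath, CsCl pipette); efficacy calculated from leak-corrected currents before and after drug.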

[2] = Rat pharmacokinetic experiment; format: in vivo; conditions: for Kp: male, SD, brain / plasma, read-out: B/P (proportion of compounds entering the brain); for Kp / Cmax: rat, po; for Cmax: plasma
Experimental: The maximum plasma concentration (Cmax) in the rat pharmacokinetic experiment was used to evaluate the absorption of the compounds in rat in vivo. The experimental compound was dissolved and then orally administered by gavage (p.o.) to male SD rats. The rats were fasted overnight before drug administration, and blood was collected via venipuncture at 0.25, 0.5, 1, 2, 4, and 7 hours post dose. Approximately 100 μL blood was collected for each sample; at the same time, the whole brain was taken and homogenized with 3 times the amount of PBS for analysis. The […] method was used to determine drug concentrations in plasma and brain tissue, and the proportion of compounds entering the brain (B/P) was calculated based on the AUC of the compound. Pharmacokinetic parameters were calculated using Phoenix WinNonlin 7.0. The administration vehicle was 5% CMC-Na aqueous solution.

[3] = molecular target: human α1β3γ2 receptors (Homo sapiens (Human), UniProt P14867+P18507); experiment: 3H-flunitrazepam competition binding, human α1β3γ2 GABAA receptor; conditions: HEK293 cell membranes, 1 nM 3H-flunitrazepam; read-out: Ki α1
Experimental: (§1) The affinity of the compound to each subtype of GABAA receptor was determined by competing for the binding of ^3H-flunitrazepam to HEK293 cells stably expressing human α1β3γ2, α2β3γ2, α3β3γ2, and α5β3γ2 receptors.
(§2) The cells were suspended in 50 mM Tris-HCl buffer (pH=7.4), homogenized 10 times on ice with a homogenizer for 20 seconds, and centrifuged at 1000 g for 10 minutes at 4° C. The supernatant was collected, and the above steps were repeated. The supernatant was centrifuged at 4° C. (33800 g; Thermo, rotor: A27-8×50) for 60 minutes, and the precipitate was resuspended in Tris buffer (50 mM Tris-HCl, 10 mM MgCl2, 0.5 mM EDTA, 10% glycerol). Protein was measured (BCA method, Pierce), and 1 mL aliquots were prepared and stored at −80° C.
(§3) The radioligand competition binding assay was performed in a 200 μL system (96-well plate) containing 100 μL of cell membrane. The concentration of ^3H-flunitrazepam was 1 nM and the concentration of the test compound was in the range of […]. Flumazenil was used as a control. 1 μL of 2 mM flumazenil (final concentration […]) was added to the low signal control well (Low control, LC), and 1 μL of DMSO was added to the high signal control well (High control, HC). The final concentration of target membrane protein was […]. All test compound sample storage solutions were 10 mM. The working concentration of the samples was to dilute all the samples to 0.2 mM with DMSO, followed by 4-fold serial gradient dilutions for a total of 8 concentration gradients. The 96-well plate was sealed with a sealing film, and then incubated on a shaker at room temperature for 1 hour. At the same time, the GF/C filter plate was soaked in soaking buffer (0.3% PEI, stored at 4° C.) for at least 0.5 hours. After the binding incubation was completed, the cells were collected onto a GF/C filter plate using a cell harvester. The plate was washed four times with washing buffer (50 mM Tris-HCl, pH 7.4, stored at 4° C.). After drying in a 50° C. oven for 1 hour, the bottom of the dried GF/C filter plate was sealed. The residual radioactivity on the filter membrane was detected using liquid scintillation counting. 50 μL of scintillation fluid was added to each well, and the plate was sealed. The readings were taken using a Microbeta2. The inhibitory activity of the test sample on the binding of ^3H-flunitrazepam to GABAA receptor membrane proteins was calculated, and the IC50 of each test sample was calculated by dose-effect curve fitting (GraphPad Prism 5 software), and the Ki of the sample was calculated from the IC50, thus evaluating the binding ability of the sample to the various subtypes of GABAA receptors.

[4] = molecular target: human α3β3γ2 receptors (Homo sapiens (Human), UniProt P18507+P34903); experiment: 3H-flunitrazepam competition binding, human α3β3γ2 GABAA receptor; conditions: HEK293 cell membranes, 1 nM 3H-flunitrazepam; read-out: Ki α3
Experimental: as §1, §2, §3

[5] = molecular target: human α2β3γ2 receptors (Homo sapiens (Human), UniProt P18507+P47869); experiment: 3H-flunitrazepam competition binding, human α2β3γ2 GABAA receptor; conditions: HEK293 cell membranes, 1 nM 3H-flunitrazepam; read-out: Ki α2
Experimental: as §1, §2, §3

[6] = molecular target: human α5β3γ2 receptors (α5-GABAA receptor) (Homo sapiens (Human), UniProt P18507+P31644); experiment: 3H-flunitrazepam competition binding, human α5β3γ2 GABAA receptor; conditions: HEK293 cell membranes, 1 nM 3H-flunitrazepam; read-out: α5-GABAAR Ki
How it was run: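 Radioligand displacement of 1 nM 3H-flunitrazepam from membranes of HEK293 lines stably expressing the human subtypes, 1 h at room temperature, compound in 8-point 4-fold series. Bound label on GF/C filters counted by scintillation; Ki derived from fitted IC50, with flumazenil as low control.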

[7] = tested on: α5-GABAA receptor; conditions: GABA 1 μM, highest concentration of L-655,708; cited from earlier work

| SMILES | inhibition at 0.1 µM [1] | Kp ([2]; 1 mg/kg) | Cmax ([2]; male SD rats, 1 mg/kg) | Ki [3] | Ki [4] | Ki [5] | Ki [6] | Kp ([2]; 3 mg/kg) | Cmax ([2]; male SD rats, 3 mg/kg) | B/P (proportion of compounds entering the brain) ([2]; male SD rats, p.o., 3 mg/kg, based on AUC) | suppression of the current induced by GABA [7] |
| --- | --- | --- | --- | --- | --- | --- | --- | --- | --- | --- | --- |
| Cc1nnn(-c2ccc(C(F)F)cc2)c1COc1ccc(N2CC(C(=O)NC(C)C)C2)nn1 [Example 155, 1-(6-((1-(4-(Difluoromethyl)phenyl)-4-methyl-1H-1,2,3-triazol-5-yl)methoxy)pyridazin-3-yl)-N-isopropylazetidine-3-carboxamide] | 42.3% | – | – | 389 nM | 68.7 nM | 231 nM | 5.39 nM | 0.0166 | 3020 ng/mL | – | – |
| CCOC(=O)c1ncn2c1[C@@H]1CCCN1C(=O)c1cc(OC)ccc1-2 [L-655,708] | – | – | – | – | – | – | – | – | – | – | 15% |

Continued, in another order:

| inhibition at 0.1 µM [1] | Kp ([2]; 1 mg/kg) | Cmax ([2]; male SD rats, 1 mg/kg) | Ki [3] | Ki [4] | Ki [5] | Ki [6] | Kp ([2]; 3 mg/kg) | Cmax ([2]; male SD rats, 3 mg/kg) | B/P (proportion of compounds entering the brain) ([2]; male SD rats, p.o., 3 mg/kg, based on AUC) | SMILES | suppression of the current induced by GABA [7] |
| --- | --- | --- | --- | --- | --- | --- | --- | --- | --- | --- | --- |
| 50.3% | 0.0336 | 637 ng/mL | 47.8 nM | 23.4 nM | 45.4 nM | 1.32 nM | – | – | – | Cc1nnn(-c2ccc(C(F)F)cc2)c1COc1ccc(N2CCN(C)C(=O)C2)nn1 [Example 26, 4-(6-((1-(4-(Difluoromethyl)phenyl)-4-methyl-1H-1,2,3-triazol-5-yl)methoxy)pyridazin-3-yl)-1-methylpiperazin-2-one] | – |
| 40.5% | – | – | 73.5 nM | 26.3 nM | 27.2 nM | 1.11 nM | – | 3180 ng/mL | 3.81% | Cc1nnn(-c2ccc(C(F)F)cc2)c1COc1cnc(N2CCNC(=O)C2)cn1 [Example 169, 4-(5-((1-(4-(Difluoromethyl)phenyl)-4-methyl-1H-1,2,3-triazol-5-yl)methoxy)pyrazin-2-yl)piperazin-2-one] | – |
| 51.2% | – | – | 140 nM | 44.6 nM | 64.2 nM | 1.21 nM | 0.0099 | 2670 ng/mL | – | O=C1NCCN2CCN(c3ccc(OCc4c(Cl)nnn4-c4ccc(C(F)F)cc4)nn3)C[C@@H]12 [Example 181, (S)-8-(6-((4-Chloro-1-(4-(difluoromethyl)phenyl)-1H-1,2,3-triazol-5-yl)methoxy)pyridazin-3-yl)hexahydro-2H-pyrazino[1,2-a]pyrazin-1(6H)-one] | – |
